According to publication PMC10719761 (Journal of the American Chemical Society, 2023):

Columns and labels:
[1] = cited from earlier work
[2] = Incubation with GSH at pH 7.4; assay type: physicochemical; conditions: pH 7.4, within 4 h of incubation

corresponding GSH adduct produced [2] | Structure (SMILES) | pKa [1]
 | N[C@@H](CCC(=O)N[C@@H](CS)C(=O)NCC(=O)O)C(=O)O [GSH, glutathione] | 9.17
more than 50% | COc1ccc2c(c1)CCCN2C(=O)CCl [Compound 11] | 
